Assay [1] has as its system mildews. Kind of assay: Mildew proofness of lenses with anti-reflecting membrane containing mildew proofing agent, left to stand in thermo-hygrostat. Type of assay: cell-based. Also on record: key: ∘: Growing of mildews was not recognized by visual inspection and inspection with a 5x magnifier.; Growing of mildews was not recognized by visual inspection, but recognized by inspection with a 5x magnifier.; xx: Growing of mildews was recognized by both the visual inspection and the inspection with a 5x magnifier. The conditions noted are these: acrylic resin lens, anti-reflecting membrane containing the agent; 1 week in thermo-hygrostat of 40° C. and 95% RH; visual inspection and 5× magnifier. As to the method: Anti-reflecting paints containing the mildew proofing agentwere prepared by mixing a silica sol solution as a binder (containing 2-propanol as a main solvent and 10% by weight of an alkoxysilane polymer) (2 parts by weight), a 5 wt % dispersion of silicon dioxide having an average length of major axis of about 60 nm as inorganic oxide particles (35 parts by weight), 2-propanol (100 parts by weight), and a 2 wt % 2-propanol solution of the mildew proofing agent (2 parts by weight). Here, 2-propanol was used as the solvent because most of the mildew proofing agents only partially dissolve in water.
Next, the same lens of acrylic resin as used in Example 1 as one of the optical parts of the present invention was cleaned in the same manner as in Example 1, and thereafter the lens was coated with the anti-reflecting paint containing the mildew proofing agent in place of the anti-reflecting paint used in Example 1, followed by heating the coat. In this case, the anti-reflecting paint was also coated on the back surface of the lens as in Example 1. Thus, a lens having an anti-reflecting membrane containing the mildew proofing agent was produced.
Next, in order to confirm whether these lenses had mildew proofness or not, these lenses were left to stand for 1 week in a thermo-hygrostat of 40° C. and 95% RH. For comparison, the lens having the anti-reflecting membrane containing no mildew proofing agent was also left to stand together. After 1 week, it was confirmed by visual inspection and inspection with a 5× magnifier whether mildews grew or not.

Assay [2] relates to mildews. Kind of assay: Mildew proofness of the lenses left to stand in thermo-hygrostat after dipping in hot water. Format: cell-based. Also on record: key to Growing of mildew: ∘: Growing of mildews was not recognized by visual inspection and inspection with a 5x magnifier.; Growing of mildews was not recognized by visual inspection, but recognized by inspection with a 5x magnifier.; xx: Growing of mildews was recognized by both the visual inspection and the inspection with a 5x magnifier. As to conditions: lens dipped in hot water at 40° C. for 1 hour; for Growing of mildews (in words): then 1 week at 40° C. and 95% RH; for Growing of mildew: then 1 week in thermo-hygrostat of 40° C. and 95% RH, visual inspection and 5× magnifier. Here is the method: Then, the lenses having the anti-reflecting membrane containing the mildew proofing agent were dipped in hot water at 40° C. for 1 hour and thereafter were left to stand for 1 week in a thermo-hygrostat of 40° C. and 95% RH. After lapse of 1 week, it was examined by visual inspection and inspection with a 5× magnifier whether mildews grew or not.
In compounds 13, 16, 18 and 20, the elemental proportion of nitrogen was 6% by weight or more.

As for `CCCCCCCC[n+]1ccccc1` [Compound 13], the Growing of mildew result with mildews [1] is “∘”. Further, in the assay on mildews [2], the “Growing of mildews (in words)” value is “Growing of a few mildews was seen” and the Growing of mildew entry is “x”.

As for `CCCCCCCCCC[n+]1ccccc1` [Compound 14], the Growing of mildew result with mildews [1] and with mildews [2] was “∘” each time.

For the compound `CCCC[n+]1ccccc1` [Compound 16], the Growing of mildew result in the assay on mildews [1] is recorded as “∘”. Also, in the assay with mildews [2], the “Growing of mildews (in words)” value is listed as “Growing of a few mildews was seen” and the Growing of mildew result is “x”.

In the case of `CCCCCC[n+]1ccccc1` [Compound 17], the Growing of mildew result in the assay with mildews [1] and in the assay on mildews [2] was “∘” in each case.

Regarding `C[n+]1ccccc1` [Compound 18], the Growing of mildew entry in the assay with mildews [1] is listed as “∘”. For the same compound, in the assay on mildews [2], the “Growing of mildews (in words)” value is recorded as “Growing of a few mildews was seen” and the Growing of mildew result is “x”.

On to `CC(C)(C)OC(=O)Nc1ccc(Cl)cc1` [Compound 27], for which the Growing of mildew entry in the assay on mildews [1] was “∘”.

As to `CC(C)(C)OC(=O)Nc1ccc(I)cc1` [Compound 28], the Growing of mildew entry with mildews [1] is “∘”.

For `O=C(Nc1ccc(Cl)cc1)Oc1ccccc1` [Compound 29], the Growing of mildew result in the assay on mildews [1] is reported as “∘”.

The values are drawn from patent publication US20070053062A1, “Optical part and projection type display apparatus using same” (priority 2005, published 2007).
